Experimental data: publication PMC5306062, “Pharmacology and toxicology of the novel investigational agent Cantrixil (TRX-E-002-1)” (Cancer Chemotherapy and Pharmacology, 2016)
Read-outs that look alike come from different tables or passages of the source.

Key:
A172 = test: Cytotoxic activity in human cancer cell lines (72 h growth inhibition); type: cell-based; details: A 172, Glioblastoma, 72 h incubation, mean ± SEM
Text: (§1) Activity in pancreatic and colorectal cancer cells and glioblastoma cells was more variable (Table 1).

HT-29 = test: as above; type: cell-based; details: Colorectal, 72 h incubation, mean ± SEM
Text: as §1

OVCAR-3 = test: as above; type: cell-based; details: Ovarian, 72 h incubation, mean ± SEM
Text: as §1

A549 = test: as above; type: cell-based; details: Lung, 72 h incubation
Text: as §1

LOVO = test: as above; type: cell-based; details: Colorectal, 72 h incubation, mean ± SEM
Text: as §1

DU145 = test: as above; type: cell-based; details: DU-145, Prostate, 72 h incubation, mean ± SEM
Text: as §1

C4-2B = test: as above; type: cell-based; details: Prostate, 72 h incubation, mean ± SEM
Text: as §1

Panc-1 = test: as above; type: cell-based; details: Pancreatic, 72 h incubation, mean ± SEM
Text: as §1

JAM = test: as above; type: cell-based; details: Ovarian, 72 h incubation, mean ± SEM
Text: as §1

PC3 = test: as above; type: cell-based; details: PC-3, Prostate, 72 h incubation, mean ± SEM
Text: as §1

ASPC1 = test: as above; type: cell-based; details: Pancreatic, 72 h incubation, mean ± SEM
Text: as §1

CYP1A2 = target: T1, CYP1A2 (Homo sapiens, UniProt P05177); test: Metabolism-dependent CYP inhibition in human hepatic microsomes; type: in vitro ADME
T1 construct: investigated in human hepatic microsomes in vitro; from tissue; host or cells: human hepatic microsomes
T1 sequence (P05177 whole entry): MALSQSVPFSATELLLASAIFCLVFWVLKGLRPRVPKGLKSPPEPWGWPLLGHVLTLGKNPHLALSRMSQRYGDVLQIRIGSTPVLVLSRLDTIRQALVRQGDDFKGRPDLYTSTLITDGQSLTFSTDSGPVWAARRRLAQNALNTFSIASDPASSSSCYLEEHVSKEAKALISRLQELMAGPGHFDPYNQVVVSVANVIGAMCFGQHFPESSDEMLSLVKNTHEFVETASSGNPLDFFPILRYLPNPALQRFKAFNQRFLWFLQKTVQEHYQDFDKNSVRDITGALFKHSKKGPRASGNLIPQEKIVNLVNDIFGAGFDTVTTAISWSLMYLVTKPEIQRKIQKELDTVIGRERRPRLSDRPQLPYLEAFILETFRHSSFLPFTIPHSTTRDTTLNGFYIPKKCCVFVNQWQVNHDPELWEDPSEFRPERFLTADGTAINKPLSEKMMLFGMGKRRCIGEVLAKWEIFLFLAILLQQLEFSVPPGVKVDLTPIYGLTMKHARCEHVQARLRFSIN
Text: (§2) The potential for pharmacokinetic drug interactions resulting from inhibition of drug-metabolizing cytochrome P450 enzymes was investigated in human hepatic microsomes in vitro. TRX-E-002-1 inhibited multiple cytochrome P450 drug-metabolizing enzymes, including CYP2C9, CYP2C8, CYP2C19, CYP2B6, CYP3A4, CYP2D6, CYP2A6 and CYP1A2. […] In particular, the potential interaction between Cantrixil and paclitaxel, a CYP2C9 substrate frequently used in the treatment of ovarian cancer, needs to be considered.

CYP3A4 = target: T2, CYP3A4 (Homo sapiens, UniProt P08684); test: as above; type: in vitro ADME
T2 construct: investigated in human hepatic microsomes in vitro; from tissue; host or cells: human hepatic microsomes
T2 sequence (P08684 whole entry): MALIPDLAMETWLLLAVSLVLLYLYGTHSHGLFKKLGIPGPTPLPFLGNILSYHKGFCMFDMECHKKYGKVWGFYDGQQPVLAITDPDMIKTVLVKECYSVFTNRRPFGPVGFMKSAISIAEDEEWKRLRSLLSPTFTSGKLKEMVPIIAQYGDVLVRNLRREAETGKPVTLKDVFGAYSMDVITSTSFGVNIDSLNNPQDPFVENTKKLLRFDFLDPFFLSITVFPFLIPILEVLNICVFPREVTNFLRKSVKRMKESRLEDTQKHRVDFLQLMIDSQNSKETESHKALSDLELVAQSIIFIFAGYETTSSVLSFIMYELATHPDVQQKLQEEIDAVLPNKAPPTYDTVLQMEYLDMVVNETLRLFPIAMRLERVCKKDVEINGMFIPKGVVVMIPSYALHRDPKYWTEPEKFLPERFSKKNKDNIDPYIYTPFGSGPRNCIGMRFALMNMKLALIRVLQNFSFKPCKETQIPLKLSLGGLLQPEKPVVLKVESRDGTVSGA
Text: as §2

CYP2C8 = target: T3, CYP2C8 (Homo sapiens, UniProt P10632); test: as above; type: in vitro ADME
T3 construct: investigated in human hepatic microsomes in vitro; from tissue; host or cells: human hepatic microsomes
T3 sequence (P10632 whole entry): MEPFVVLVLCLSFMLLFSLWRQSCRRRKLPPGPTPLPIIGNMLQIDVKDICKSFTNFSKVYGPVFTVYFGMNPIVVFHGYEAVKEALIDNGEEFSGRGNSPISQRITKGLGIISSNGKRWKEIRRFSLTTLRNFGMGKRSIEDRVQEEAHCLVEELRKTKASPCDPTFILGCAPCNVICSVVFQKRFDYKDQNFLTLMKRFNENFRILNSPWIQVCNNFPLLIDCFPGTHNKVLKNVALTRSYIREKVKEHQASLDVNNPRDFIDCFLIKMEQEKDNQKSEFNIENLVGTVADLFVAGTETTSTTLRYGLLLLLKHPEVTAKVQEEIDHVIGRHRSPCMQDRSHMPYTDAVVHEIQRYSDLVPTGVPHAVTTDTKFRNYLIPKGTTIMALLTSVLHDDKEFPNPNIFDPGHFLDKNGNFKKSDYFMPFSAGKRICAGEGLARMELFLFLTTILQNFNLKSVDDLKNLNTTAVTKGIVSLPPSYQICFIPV
Text: as §2

tumour spheroids = test: Degradation of tumour spheroids; type: cell-based, human
Text: Tumour recurrence post-chemotherapy is caused by the regrowth of the surviving innately drug-resistant cancer stem cells that remain in tumour niches during and post-chemotherapy. The expansion of this chemo-resistant cancer cell population, coupled with upregulation of pro-survival pathways due to drug pressure, is thought to be responsible for the development of chemo-resistant recurrent disease. Further, the inherent heterogeneity of ovarian tumours consists of epithelial cells with varying potential for stemness, and a population of cancer cells with varying mesenchymal status and invasiveness potential. Therefore, to improve survival, a practical approach is the use of novel therapies that can induce cell death in these various subtypes of ovarian cancer cells. TRX-E-002-1 was assessed against ovarian cancer stem cell line OCSC2, characterised by their expression of stem cell markers including CD44 and […] [22]. A major characteristic of these cells is that they are drug resistant, able to form self-renewing spheroids in non-adherent culture, and recreate disseminated drug-resistant ovarian tumours that have a high degree of heterogeneity similar to the clinical profile observed in patients when inoculated into the peritoneal cavity of an immune-compromised mouse.

[1] = Rat 14-day pilot repeat-dose intraperitoneal toxicity study; type: in vivo; details: for deaths: 50 mg/kg/day; for AUC(0-t) / Cmax: plasma, Day 14, 5 mg/kg/day; for Cmax: read-out: plasma C max
Protocol: Clinical signs at all dose levels were reduced and/or liquid faeces, and staining of the fur of the forelimbs or around the eyes, nose and snout. […] Macroscopic pathology findings were limited to the 50 mg/kg/day group and included small testes, small thymus and small spleen.

[2] = female, Sprague-Dawley, rat, ip, females
[3] = male, Sprague-Dawley, rat, ip, males

Q: Which IC50 (A172) does the source give for COc1cc([C@@H]2COc3c(ccc(O)c3C)[C@@H]2c2ccc(O)cc2)cc(OC)c1O [TRX-E-002-1, (+) cis-4-(para-hydroxyphenyl)-7,4′-dihydroxy-3′,5′-dimethoxy-8-methylisoflavan] here?
A: Its IC50 is 51 ± 2 nM.

Q: What about the IC50 (HT-29) of the same molecule?
A: The IC50 was 1760 ± 1380 nM.

Q: What about the IC50 (OVCAR-3) of the same molecule?
A: Its IC50 is 23 ± 6 nM.

Q: What about the IC50 (A549) of the same molecule?
A: The IC50 was 58 nM.

Q: And the IC50 (LOVO)?
A: Its IC50 is 45 ± 5 nM.

Q: And the IC50 (LOVO; Homo sapiens, LoVo, 72 h)?
A: The IC50 was 84 nM.

Q: And the IC50 (DU145)?
A: The IC50 was 41 ± 14 nM.

Q: What about the IC50 (C4-2B) of the same molecule?
A: The IC50 was 14 ± 9 nM.

Q: And the IC50 (Panc-1)?
A: The IC50 was 467 ± 378 nM.

Q: What about the IC50 (JAM) of the same molecule?
A: Its IC50 is 65 ± 2 nM.

Q: And the IC50 (PC3)?
A: Its IC50 is 96 ± 77 nM.

Q: And the IC50 (ASPC1)?
A: The IC50 was 227 ± 55 nM.

Q: And the metabolism-dependent inhibition (CYP1A2)?
A: The metabolism-dependent inhibition was “observed”.

Q: And the metabolism-dependent inhibition (CYP3A4)?
A: The metabolism-dependent inhibition was “observed”.

Q: And the metabolism-dependent inhibition (CYP2C8)?
A: The metabolism-dependent inhibition was “observed”.

Q: And the “effect on tumour spheroids” value (tumour spheroids)?
A: The value was “promoted the degradation”.

Q: What about the deaths ([1]; females) of the same molecule?
A: The deaths was 8/11.

Q: What about the deaths ([1]; males) of the same molecule?
A: Its deaths is 9/11.

Q: And the NOAEL at 14 days ([1]; both sexes, Sprague-Dawley, rat, in vivo, ip)?
A: Its NOAEL at 14 days is 5 mg/kg/day.

Q: What about the AUC(0-t) [1, 2] of the same molecule?
A: Its AUC(0-t) is 665 ng·h/mL.

Q: What about the Cmax [1, 2] of the same molecule?
A: Its Cmax is 257 ng/mL.

Q: And the “doses with reduced body weight gain” value ([1]; females)?
A: Its value is no less than 15 mg/kg/day.

Q: And the AUC(0-t) [1, 3]?
A: The AUC(0-t) was 1870 ng·h/mL.

Q: What about the Cmax [1, 3] of the same molecule?
A: The Cmax was 909 ng/mL.

Q: And the “doses with reduced body weight gain” value ([1]; males)?
A: The value was no less than 5 mg/kg/day.
